# Values joined by “and” are separate entries in the source; they are usually repeats but may differ in a detail not shown here. Identical values can stand only once. Like-named read-outs stand apart in the source and are kept apart here.
# How the values were obtained:
# Format in all cases: in vivo
# [1] = system: Abutilon theophrasti (ABUTH); assay: greenhouse post-emergence herbicidal activity on ABUTH
# Excerpt: (§1) For the post-emergence treatment, the test plants were first grown to a height of 3 to 20 cm, depending on the plant habit, and only then treated. Here, the herbicidal compositions were suspended or emulsified in water as distribution medium and sprayed using finely distributing nozzles.
# (§2) The respective herbicides B and/or safener were formulated as 10% by weight strength suspension concentrate and introduced to the spray liquor with the amount of solvent system used for applying the active compound. Herbicides A, C and/or safener were used as commercially available formulations and introduced to the spray liquor with the amount of solvent system used for applying the active compound. In the examples, the solvent used was water.
# (§3) The test period extended over 21 days. During this time, the plants were tended, and their response to the treatments with active compound was evaluated.
# (§4) The evaluation for the damage caused by the chemical compositions was carried out using a scale from 0 to 100%, compared to the untreated control plants. Here, 0 means no damage and 100 means complete destruction of the plants.
# (§5) The value E, which is to be expected if the activity of the individual compounds is just additive, was calculated using the method of S. R. Colby (1967) “Calculating synergistic and antagonistic responses of herbicide combinations”, Weeds 15, p. 22 ff. For two component mixtures the value E was calculated by the following formula E=X+Y−(X·Y/100)
# (§6) For three component mixtures the value E was calculated by the following formula E=X+Y+Z−(XY+XZ+YZ)/100+(X·YZ/10000) where X=effect in percent using herbicide A at an application rate a; • Y=effect in percent using herbicide B at an application rate b; • Z=effect in percent using herbicide C at an application rate c; • E=expected effect (in %) of A+B at application rates a+b. or • E=expected effect (in %) of A+B+C at application rates a+b+c.
# (§7) If the value observed in this manner is higher than the value E calculated according to Colby, a synergistic effect is present.
# (§8) Tables 1 to 12 relate to the herbicidal activity of the individual actives and of their combinations in post-emergence application assessed 20 DAT.
# [2] = system: Alopecurus myosuroides (ALOMY); assay: greenhouse post-emergence herbicidal activity on ALOMY
# Excerpt: as §1, §2, §3, §4, §5, §6, §7, §8
# [3] = system: Amaranthus retroflexus (AMARE); assay: greenhouse post-emergence herbicidal activity on AMARE; conditions: 480 h, read-out: % activity 20 DAT
# Excerpt: as §1, §2, §3
# (§9) The evaluation for the damage caused by the chemical compositions was carried out using a scale from 0 to 100%, compared to the untreated control plants. […]
# (§10) The value E, which is to be expected if the activity of the individual compounds is just additive, was calculated using the method of S. R. Colby (1967) “Calculating synergistic and antagonistic responses of herbicide combinations”, Weeds 15, p. […] For two component mixtures the value E was calculated by the following formula E=X+Y−(X·Y/100)
# as §6, §7, §8
# [4] = system: Galium aparine (GALAP); assay: greenhouse post-emergence herbicidal activity on GALAP; conditions: solo application
# Excerpt: as §1, §2, §3, §4, §5, §6, §7, §8
# [5] = system: Matricaria inermis (MATIN); assay: greenhouse post-emergence herbicidal activity on MATIN
# Excerpt: as §1, §2, §3, §4, §5, §6, §7, §8
# [6] = system: Chenopodium album (CHEAL); assay: greenhouse post-emergence herbicidal activity on CHEAL
# Excerpt: as §1, §2, §3, §4, §5, §6, §7, §8
# [7] = system: Lolium multiflorum (LOLMU); assay: greenhouse post-emergence herbicidal activity on LOLMU
# Excerpt: as §1, §2, §3, §4, §5, §6, §7, §8
# [8] = system: Echinochloa crus-galli (ECHCG); assay: greenhouse post-emergence herbicidal activity on ECHCG
# Excerpt: as §1, §2, §3, §9, §10, §6, §7, §8
# [9] = system: Setaria viridis (SETVI); assay: greenhouse post-emergence herbicidal activity on SETVI; conditions: 480 h, read-out: % activity 20 DAT
# Excerpt: as §1, §2, §3, §9, §10, §6, §7, §8
# [10] = system: Digitaria sanguinalis (DIGSA); assay: greenhouse post-emergence herbicidal activity on DIGSA
# Excerpt: as §1, §2, §3, §4, §5, §6, §7, §8
# [11] = system: Avena fatua (AVEFA); assay: greenhouse post-emergence herbicidal activity on AVEFA; conditions: 480 h, read-out: % activity 20 DAT
# Excerpt: as §1, §2, §3, §4, §5, §6, §7, §8
# [12] = system: Polygonum convolvulus (POLCO); assay: greenhouse post-emergence herbicidal activity on POLCO
# Excerpt: as §1, §2, §3, §4, §5, §6, §7, §8
# [13] = system: Sinapis arvensis (SINAR); assay: greenhouse post-emergence herbicidal activity on SINAR; conditions: Mutarda arvensis, 480 h, read-out: % activity 20 DAT
# Excerpt: as §1, §2, §3, §9, §10, §6, §7, §8
# [14] = Digitaria sanguinalis, 480 h, read-out: % activity 20 DAT
# [15] = Fallopia convolvulus, 480 h, read-out: % activity 20 DAT
smiles,measurement,setting,value
"O=C(O)CNCP(=O)(O)O [glyphosate, N-(phosphonomethyl)glycine]",inhibition at 50 g/ha,"[1]; Abutilon theophrasti, 480 h, read-out: % activity 20 DAT, post-emergence, solo application, 50 g ai/ha",0%
same,inhibition at 200 g/ha,"[1]; Abutilon theophrasti, 480 h, read-out: % activity 20 DAT, post-emergence, solo application, 200 g ai/ha",70%
same,inhibition at 50 g/ha,"[2]; Alopecurus myosuroides, 480 h, read-out: % activity 20 DAT, post-emergence, solo application, 50 g ai/ha",20%
same,inhibition at 100 g/ha,"[2]; Alopecurus myosuroides, 480 h, read-out: % activity 20 DAT, post-emergence, solo application, 100 g ai/ha",40%
same,inhibition at 200 g/ha,"[2]; Alopecurus myosuroides, 480 h, read-out: % activity 20 DAT, post-emergence, solo application, 200 g ai/ha",85%
same,% activity 20 DAT,"[2]; solo application, 50 g ai/ha",15%
same,% activity 20 DAT,"[2]; solo application, 100 g ai/ha",30%
same,inhibition at 50 g/ha,[3],90%
same,% activity 20 DAT,[4]; 50 g ai/ha,10%
same,inhibition at 100 g/ha,"[5]; Matricaria, 480 h, read-out: % activity 20 DAT, post-emergence, solo application, 100 g ai/ha",90%
same,inhibition at 400 g/ha,"[5]; Matricaria, 480 h, read-out: % activity 20 DAT, post-emergence, solo application, 400 g ai/ha",95%
same,% activity 20 DAT,"[5]; solo application, 50 g ai/ha",65%
same,inhibition at 50 g/ha,"[6]; Chenopodium album, 480 h, read-out: % activity 20 DAT, post-emergence, solo application, 50 g ai/ha",40%
same,inhibition at 200 g/ha,"[6]; Chenopodium album, 480 h, read-out: % activity 20 DAT, post-emergence, solo application, 200 g ai/ha",80%
same,% activity 20 DAT,"[6]; solo application, 50 g ai/ha",30%
same,% activity 20 DAT,"[6]; solo application, 100 g ai/ha",50% and 85%
same,inhibition at 50 g/ha,"[7]; Lolium multiflorum, 480 h, read-out: % activity 20 DAT, post-emergence, solo application, 50 g ai/ha",40%
same,inhibition at 100 g/ha,"[7]; Lolium multiflorum, 480 h, read-out: % activity 20 DAT, post-emergence, solo application, 100 g ai/ha",75%
same,% activity 20 DAT,"[7]; solo application, 50 g ai/ha",45%
same,inhibition at 50 g/ha,"[8]; Echinochloa crus-galli, 480 h, read-out: % activity 20 DAT",30%
same,inhibition at 50 g/ha,[9],70%
same,inhibition at 50 g/ha,[10]; [14],70%
same,inhibition at 100 g/ha,[10]; [14],85%
same,inhibition at 100 g/ha,[11],45%
same,inhibition at 50 g/ha,[12]; [15],30%
same,inhibition at 100 g/ha,[12]; [15],50%
same,inhibition at 200 g/ha,[12]; [15],50%
same,inhibition at 400 g/ha,[12]; [15],90%
same,inhibition at 50 g/ha,[13],80%
"Cn1nc(C(F)(F)F)c(CS(=O)(=O)C2=NOC(C)(C)C2)c1OC(F)F [pyroxasulfone, 3-[5-(difluoromethoxy)-1-methyl-3-(trifluoromethyl)pyrazol-4-ylmethylsulfonyl]-4,5-dihydro-5,5-dimethyl-1,2-oxazole]",inhibition at 12.5 g/ha,"[1]; Abutilon theophrasti, 480 h, solo application, 12.5 g ai/ha, read-out: % activity 20 DAT",40%
same,inhibition at 50 g/ha,"[1]; Abutilon theophrasti, 480 h, solo application, 50 g ai/ha, read-out: % activity 20 DAT",70%
same,% activity 20 DAT,"[1]; solo application, 12.5 g ai/ha",60%
same,% activity 20 DAT,"[1]; solo application, 25 g ai/ha",65%
same,inhibition at 12.5 g/ha,"[2]; Alopecurus myosuroides, 480 h, solo application, 12.5 g ai/ha, read-out: % activity 20 DAT",30%
same,inhibition at 25 g/ha,"[2]; Alopecurus myosuroides, 480 h, solo application, 25 g ai/ha, read-out: % activity 20 DAT",50%
same,inhibition at 50 g/ha,"[2]; Alopecurus myosuroides, 480 h, solo application, 50 g ai/ha, read-out: % activity 20 DAT",50%
same,% activity 20 DAT,"[2]; solo application, 12.5 g ai/ha",40%
same,% activity 20 DAT,"[2]; solo application, 25 g ai/ha",70%
same,inhibition at 12.5 g/ha,"[3]; solo application, 12.5 g ai/ha",75%
same,inhibition at 25 g/ha,"[4]; Galium aparine, 480 h, 25 g ai/ha, read-out: % activity 20 DAT",80%
same,% activity 20 DAT,[4]; 12.5 g ai/ha,70% and 40%
same,% activity 20 DAT,[4]; 25 g ai/ha,85%
same,inhibition at 12.5 g/ha,"[5]; Matricaria, 480 h, solo application, 12.5 g ai/ha, read-out: % activity 20 DAT",0%
same,inhibition at 25 g/ha,"[5]; Matricaria, 480 h, solo application, 25 g ai/ha, read-out: % activity 20 DAT",0%
same,inhibition at 100 g/ha,"[5]; Matricaria, 480 h, solo application, 100 g ai/ha, read-out: % activity 20 DAT",15%
same,inhibition at 12.5 g/ha,"[6]; Chenopodium album, 480 h, solo application, 12.5 g ai/ha, read-out: % activity 20 DAT",20%
same,inhibition at 50 g/ha,"[6]; Chenopodium album, 480 h, solo application, 50 g ai/ha, read-out: % activity 20 DAT",20%
same,% activity 20 DAT,"[6]; solo application, 12.5 g ai/ha",35%
same,inhibition at 12.5 g/ha,"[7]; Lolium multiflorum, 480 h, solo application, 12.5 g ai/ha, read-out: % activity 20 DAT",50%
same,inhibition at 25 g/ha,"[7]; Lolium multiflorum, 480 h, solo application, 25 g ai/ha, read-out: % activity 20 DAT",50%
same,% activity 20 DAT,"[7]; solo application, 12.5 g ai/ha",55%
same,inhibition at 12.5 g/ha,"[8]; Echinochloa crus-galli, 480 h, solo application, 12.5 g ai/ha, read-out: % activity 20 DAT",75%
same,inhibition at 12.5 g/ha,"[9]; solo application, 12.5 g ai/ha",70%
same,inhibition at 12.5 g/ha,"[10]; Digitaria sanguinalis, 480 h, solo application, 12.5 g ai/ha, read-out: % activity 20 DAT",40%
same,inhibition at 25 g/ha,"[10]; Digitaria sanguinalis, 480 h, solo application, 25 g ai/ha, read-out: % activity 20 DAT",50%
same,inhibition at 25 g/ha,"[11]; solo application, 25 g ai/ha",75%
same,inhibition at 12.5 g/ha,"[12]; Fallopia convolvulus, 480 h, solo application, 12.5 g ai/ha, read-out: % activity 20 DAT",35%
same,inhibition at 25 g/ha,"[12]; Fallopia convolvulus, 480 h, solo application, 25 g ai/ha, read-out: % activity 20 DAT",50%
same,inhibition at 50 g/ha,"[12]; Fallopia convolvulus, 480 h, solo application, 50 g ai/ha, read-out: % activity 20 DAT",50%
same,inhibition at 100 g/ha,"[12]; Fallopia convolvulus, 480 h, solo application, 100 g ai/ha, read-out: % activity 20 DAT",65%
same,inhibition at 12.5 g/ha,"[13]; solo application, 12.5 g ai/ha",65%
CC(C)N(C)S(=O)(=O)NC(=O)c1cc(-n2c(=O)cc(C(F)(F)F)n(C)c2=O)c(F)cc1Cl [saflufenacil],% activity 20 DAT,"[1]; solo application, 1.56 g ai/ha",45%
same,% activity 20 DAT,"[2]; solo application, 1.56 g ai/ha",0%
same,% activity 20 DAT,"[2]; solo application, 3.13 g ai/ha",0%
same,% activity 20 DAT,[4]; 3.13 g ai/ha,30%
same,% activity 20 DAT,"[5]; solo application, 1.56 g ai/ha",20%
same,% activity 20 DAT,"[5]; solo application, 3.13 g ai/ha",55%
same,% activity 20 DAT,"[6]; solo application, 1.56 g ai/ha",40%
same,% activity 20 DAT,"[8]; solo application, 1.56 g ai/ha",0%
same,% activity 20 DAT,"[10]; solo application, 1.56 g ai/ha",0%
same,% activity 20 DAT,"[12]; solo application, 1.56 g ai/ha",45%
same,% activity 20 DAT,"[12]; solo application, 3.13 g ai/ha",55%

# Source: patent US11206830B2, “Herbicidal composition comprising glufosinate or a salt thereof and pyroxasulfone” (BASF SE, priority 2008, dated 2021)
